The numbers were not newly measured in US8821913B2, “Controlled releases system containing temozolomide” (Tasly Holding Group Co., Ltd., priority 2002, dated 2014), which cites them from elsewhere.

Where two headings read alike, the source gives them in different places. Some results are limits rather than exact numbers.

For data set [1] the following is noted: mouse.
The conditions of data set [2]: phase I clinical trial.

`Cn1nnc2c(C(N)=O)ncn2c1=O` [TMZ, Temozolomide]: the figures for the half-life time in data set [1] (i.p.), in data set [1] (p.o.) and in data set [2] were 1.13 h, 1.29 h and 1.8 h, respectively. For the same compound, the “time to reach maximum plasma concentration” value in data set [2] is not above 0.7 h.
